According to patent US8426420B2, “Heterocyclic pyrazole-carboxamidesas P2Y12 antagonists” (Sanofi, priority 2007, dated 2013):

molecular target: human P2Y12 receptor (Homo sapiens, UniProt Q9H244); experiment: Human P2Y12 recombinant cell membrane binding assay with 33P 2MeS-ADP; details: competition against 33P 2MeS-ADP, membranes of CHO cells with recombinant human P2Y12 receptor
Protocol: The ability of the compounds of the formula Ito inhibit the P2Y12 receptor can be assessed by determining the concentration of the compound of the formula I that binds to the human P2Y12 Recombinant Cell Membrane Binding Assay with 33P 2MeS-ADP.
Human P2Y12 Recombinant Cell Membrane Binding Assay
The ability of a test compound to bind to the P2Y12 receptor was evaluated in a recombinant cell membrane binding assay. In this competitive binding assay, the test compound competed against a radiolabeled agonist for binding to the P2Y12 receptor, expressed on the cell membrane. Inhibition of binding of the labeled material was measured and correlated to the amount and potency of the test compound. This binding assay is a modification of the procedure described by Takasaki, J. et. al, Mol. Pharmacol., 2001, Vol. 60, pg. 432. A membrane preparation was prepared from Chinese Hamster Ovary (CHO) cells with recombinant expression of the human P2Y12 receptor according to standard procedures as a source of P2Y12.
To a 96-well microtiterplate the following were added: a) 24 μl of assay buffer (10 mM HEPES, 138 mM NaCl, […] KCl, 12 mM NaHCO3, 1 mM EDTA-Na, 0.1% BSA, pH 7.4) b) 1 μL compound in DMSO c) 50 μL P2Y12 CHO membrane (20 μg/ml) and after 15 min at RT d) 25 μL of 1.61 nM 33P 2MeS-ADP (Perkin Elmer NEN custom synthesis, specific activity ˜2100 Ci/mmol) made in assay buffer.
After 20 min incubation at RT samples were transferred to 96-well microtiter filterplates (Millipore HTS GF/B), pre-wetted for 20 min with 300 μL of stop buffer (10 mM HEPES, 138 mM NaCl pH 7.4) and then filtered through completely with a Millipore plate vacuum. Next, wells were washed four times with 400 μl/well of stop buffer on a plate vacuum. The plate was disassembled and allowed to air dry overnight with the filter side up over night. The filter plates were snapped into adapter plates and 0.1 mL of Microscint 20 Scintillation Fluid (Perkin Elmer #6013621) was added to each well. The top of the filterplate was sealed with plastic plate covers. The sealed filterplate were incubated 2 hours at RT. A Microbeta Scintillation Counter was used to measure counts.
Compounds were diluted as 10 mM DMSO stocks and tested in a four-point, five-fold dilution series run in triplicate beginning at 10 μM, final concentration. Data were analyzed using a four-parameter curve fit with a fixed minimum and maximum experimentally defined as the average positive and negative controls on each plate.

human P2Y12 receptor, sequence (Q9H244 whole entry): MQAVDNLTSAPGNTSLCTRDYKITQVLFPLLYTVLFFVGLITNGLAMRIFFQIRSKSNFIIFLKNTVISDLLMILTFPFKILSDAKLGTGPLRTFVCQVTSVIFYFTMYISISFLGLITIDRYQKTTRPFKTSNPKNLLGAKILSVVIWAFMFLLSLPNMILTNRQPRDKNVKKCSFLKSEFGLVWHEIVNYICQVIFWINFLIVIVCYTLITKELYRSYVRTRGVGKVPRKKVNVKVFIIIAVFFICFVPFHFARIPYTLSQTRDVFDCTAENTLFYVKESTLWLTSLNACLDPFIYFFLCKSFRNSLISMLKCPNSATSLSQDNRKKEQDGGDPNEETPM

SMILES | IC50
CCOC(=O)N1CCN(C(=O)[C@H](CCNC(=O)C(C)(C)C)NC(=O)c2cc(OCC(=O)N3CCC[C@H]3C(=O)NC3CCC3)n(-c3ccccc3)n2)CC1 [Example 99, 4-[(S)-2-({5-[2-((S)-2-Cyclobutylcarbamoyl-pyrrolidin-1-yl)-2-oxo-ethoxy]-1-phenyl-1H-pyrazole-3-carbonyl}-amino)-4-(2,2-dimethyl-propionylamino)-butyryl]-piperazine-1-carboxylic acid ethyl ester] | 158 nM
CCOC(=O)N1CCN(C(=O)[C@H](CCNC(=O)C(C)C)NC(=O)c2cc(OCC(=O)N3CCC[C@H]3C(=O)NC3CCC3)n(-c3ccccc3)n2)CC1 [Example 100, 4-[(S)-2-({5-[2-((S)-2-Cyclobutylcarbamoyl-pyrrolidin-1-yl)-2-oxo-ethoxy]-1-phenyl-1H-pyrazole-3-carbonyl}-amino)-4-isobutyrylamino-butyryl]-piperazine-1-carboxylic acid ethyl ester] | 197 nM
CCCCOC(=O)NC1CCN(C(=O)[C@H](CCC(=O)O)NC(=O)c2cc(OCC(=O)N3CCC[C@H]3C(=O)NC3CCC3)n(-c3ccccc3)n2)CC1 [Example 102, (S)-5-(4-Butoxycarbonylamino-piperidin-1-yl)-4-({5-[2-((S)-2-cyclobutylcarbamoyl-pyrrolidin-1-yl)-2-oxo-ethoxy]-1-phenyl-1H-pyrazole-3-carbonyl}-amino)-5-oxo-pentanoic acid] | 58 nM
CCCCOC(=O)CC[C@H](NC(=O)c1cc(OCC(=O)N2CCC[C@H]2C(=O)NC2CCC2)n(-c2ccccc2)n1)C(=O)N1CCN(C(=O)OCC)CC1 [Example 134, 4-[(S)-2-({5-[2-((S)-2-Cyclobutylcarbamoyl-pyrrolidin-1-yl)-2-oxo-ethoxy]-1-phenyl-1H-pyrazole-3-carbonyl}-amino)-4-butoxycarbonyl-butyryl]-piperazine-1-carboxylic acid ethyl ester] | 42 nM
CCOC(=O)N1CCN(C(=O)[C@H](CCC(=O)OC(C)C)NC(=O)c2cc(OCC(=O)N3CCC[C@H]3C(=O)NC3CCC3)n(-c3ccccc3)n2)CC1 [Example 137, 4-[(S)-2-({5-[2-((S)-2-Cyclobutylcarbamoyl-pyrrolidin-1-yl)-2-oxo-ethoxy]-1-phenyl-1H-pyrazole-3-carbonyl}-amino)-4-isopropoxycarbonyl-butyryl]-piperazine-1-carboxylic acid ethyl ester] | 148 nM
CCOC(=O)CC[C@H](NC(=O)c1cc(OCC(=O)N2CCC[C@H]2C(=O)NC2CCC2)n(-c2cccc(F)c2)n1)C(=O)N1CCN(C(=O)OCC)CC1 [Example 140, 4-((S)-2-{[5-[2-((S)-2-Cyclobutylcarbamoyl-pyrrolidin-1-yl)-2-oxo-ethoxy]-1-(3-fluoro-phenyl)-1H-pyrazole-3-carbonyl]-amino}-4-ethoxyoxycarbonyl-butyryl)-piperazine-1-carboxylic acid ethyl ester] | 173 nM
CCOC(=O)N1CCN(C(=O)[C@H](CCC(=O)O)NC(=O)c2cc(OCC(=O)N3CCC[C@H]3C(=O)NCCF)n(-c3ccccc3)n2)[C@H](C)C1 [Example 151, (R)-4-[(S)-4-Carboxy-2-({5-[2-((S)-2-(2-fluoroethyl-carbamoyl)-pyrrolidin-1-yl)-2-oxo-ethoxy]-1-phenyl-1H-pyrazole-3-carbonyl}-amino)-butyryl]-3-methyl-piperazine-1-carboxylic acid ethyl ester] | 166 nM
CCCOC(=O)N1CCN(C(=O)C(NC(=O)c2cc(OCC(=O)N3CCC[C@H]3C(=O)NC3CCC3)n(-c3ccccc3)n2)C(C)F)CC1 (stereo partly drawn) [Example 175, 4-[2-({5-[2-((S)-2-Cyclobutylcarbamoyl-pyrrolidin-1-yl)-2-oxo-ethoxy]-1-phenyl-1H-pyrazole-3-carbonyl}-amino)-3-fluoro-butyryl]-piperazine-1-carboxylic acid propyl ester] | 179 nM

The remaining compounds from weak to strong by IC50, led by results:

IC50 | SMILES
146 nM | CCOC(=O)N1CCN(C(=O)[C@H](CCC(=O)O)NC(=O)c2cc(OCC(=O)N3CCCC3c3cccs3)n(-c3ccccc3)n2)CC1 (stereo partly drawn) [Example 167, 4-[(S)-4-Carboxy-2-({5-[2-oxo-2-(2-thiophen-2-yl-pyrrolidin-1-yl)-ethoxy]-1-phenyl-1H-pyrazole-3-carbonyl}-amino)-butyryl]-piperazine-1-carboxylic acid ethyl ester]
130 nM | CCOC(=O)N1CCN(C(=O)[C@H](CNC(=O)C2CC2)NC(=O)c2cc(OCC(=O)N3CCC[C@H]3C(=O)NC3CCC3)n(-c3ccccc3)n2)CC1 [Example 91, 4-[(S)-2-({5-[2-((S)-2-Cyclobutylcarbamoyl-pyrrolidin-1-yl)-2-oxo-ethoxy]-1-phenyl-1H-pyrazole-3-carbonyl}-amino)-3-(cyclopropanecarbonyl-amino)-propionyl]-piperazine-1-carboxylic acid ethyl ester]
86 nM | CCOC(=O)N1CCN(C(=O)[C@H](CCC(=O)O)NC(=O)c2cc(OCC(=O)N3CCC[C@H]3c3ccccc3)n(-c3ccccc3)n2)CC1 [Example 170, 4-[(S)-4-Carboxy-2-({5-[2-oxo-2-((S)-2-phenyl-pyrrolidin-1-yl)-ethoxy]-1-phenyl-1H-pyrazole-3-carbonyl}-amino)-butyryl]-piperazine-1-carboxylic acid ethyl ester]
83 nM | CCOC(=O)N1CCN(C(=O)[C@H](CCC(=O)OC2CCCCC2)NC(=O)c2cc(OCC(=O)N3CCC[C@H]3C(=O)NC3CCC3)n(-c3ccccc3)n2)CC1 [Example 129, 4-[(S)-2-({5-[2-((S)-2-Cyclobutylcarbamoyl-pyrrolidin-1-yl)-2-oxo-ethoxy]-1-phenyl-1H-pyrazole-3-carbonyl}-amino)-4-cyclohexyloxycarbonyl-butyryl]-piperazine-1-carboxylic acid ethyl ester]
59 nM | CCOC(=O)N1CCN(C(=O)[C@H](CCNS(C)(=O)=O)NC(=O)c2cc(OCC(=O)N3CCC[C@H]3C(=O)NC3CCC3)n(-c3ccccc3)n2)CC1 [Example 94, 4-[(S)-2-({5-[2-((S)-2-Cyclobutylcarbamoyl-pyrrolidin-1-yl)-2-oxo-ethoxy]-1-phenyl-1H-pyrazole-3-carbonyl}-amino)-4-methanesulfonylamino-butyryl]-piperazine-1-carboxylic acid ethyl ester]
59 nM | CCOC(=O)N1CCN(C(=O)[C@H](CCC(=O)OC2CCCC2)NC(=O)c2cc(OCC(=O)N3CCC[C@H]3C(=O)NC3CCC3)n(-c3ccccc3)n2)CC1 [Example 130, 4-[(S)-2-({5-[2-((S)-2-Cyclobutylcarbamoyl-pyrrolidin-1-yl)-2-oxo-ethoxy]-1-phenyl-1H-pyrazole-3-carbonyl}-amino)-4-cyclopentyloxycarbonyl-butyryl]-piperazine-1-carboxylic acid ethyl ester]
42 nM | CCCOC(=O)CC[C@H](NC(=O)c1cc(OCC(=O)N2CCC[C@H]2C(=O)NC2CCC2)n(-c2ccccc2)n1)C(=O)N1CCN(C(=O)OCC)CC1 [Example 133, 4-[(S)-2-({5-[2-((S)-2-Cyclobutylcarbamoyl-pyrrolidin-1-yl)-2-oxo-ethoxy]-1-phenyl-1H-pyrazole-3-carbonyl}-amino)-4-propoxycarbonyl-butyryl]-piperazine-1-carboxylic acid ethyl ester]
37 nM | CCOC(=O)N1CCN(C(=O)[C@H](CCC(=O)O)NC(=O)c2cc(OCC(=O)N3CCC[C@H]3C(=O)NCC3CC3)n(-c3ccccc3)n2)[C@H](C)C1 [Example 152, (R)-4-[(S)-4-Carboxy-2-({5-[2-((S)-2-(cyclopropylmethyl-carbamoyl)-pyrrolidin-1-yl)-2-oxo-ethoxy]-1-phenyl-1H-pyrazole-3-carbonyl}-amino)-butyryl]-3-methyl-piperazine-1-carboxylic acid ethyl ester]
35 nM | CCOC(=O)C(=O)NC[C@H](NC(=O)c1cc(OCC(=O)N2CCC[C@H]2C(=O)NC2CCC2)n(-c2ccccc2)n1)C(=O)N1CCN(C(=O)OCC)CC1 [Example 90, 4-[(S)-2-({5-[2-((S)-2-Cyclobutylcarbamoyl-pyrrolidin-1-yl)-2-oxo-ethoxy]-1-phenyl-1H-pyrazole-3-carbonyl}-amino)-3-(ethoxyoxalyl-amino)-propionyl]-piperazine-1-carboxylic acid ethyl ester]
25 nM | CCOC(=O)N1CCN(C(=O)[C@H](CCC(=O)OCc2ccccc2)NC(=O)c2cc(OCC(=O)N3CCC[C@H]3C(=O)NC3CCC3)n(-c3ccccc3)n2)CC1 [Example 132, 4-[(S)-2-({5-[2-((S)-2-Cyclobutylcarbamoyl-pyrrolidin-1-yl)-2-oxo-ethoxy]-1-phenyl-1H-pyrazole-3-carbonyl}-amino)-4-benzyloxycarbonyl-butyryl]-piperazine-1-carboxylic acid ethyl ester]
